Measurements: patent US20230085307A1, “PYRIDAZINONE COMPOUND AND HERBICIDE” (NISSAN CHEMICAL CORPORATION, priority 2019, published 2023)

Key:
[1] = test system: late watergrass; assay: Test Example 1: herbicidal activity, application before weed generation under submerged conditions (Table 16, symbol A); format: in vivo, late watergrass (Echinochloa oryzicola); conditions: amount of applied herbicide 320 g/ha
Outline: (§1)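 Emulsion formulation, water-diluted to set dose, was put onto the flooded surface (4 cm depth, alluvial soil) the same day weeds were sown and 2.5-leaf rice transplanted. After 3 weeks at 25-30 °C under glass, each species was rated 0 (≤5% kill) to 5 (≥90% kill).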

[2] = test system: oval-leafed pondweed; assay: Test Example 1: herbicidal activity, application before weed generation under submerged conditions (Table 16, symbol C); format: in vivo, oval-leafed pondweed (Monochoria vaginalis); conditions: amount of applied herbicide 320 g/ha
Outline: as §1

[3] = test system: barnyard grass; assay: Test Example 3: herbicidal effect by foliage application, Wagner pot (Table 18, symbol H); format: in vivo, barnyard grass (Echinochloa crus-galli); conditions: for Herbicidal effect on H (barnyard grass), foliage application: amount of applied herbicide 320 g/ha
Outline: (§2)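 Plants were sown in alluvial soil held under 0.1–0.5 cm standing water and grown 14 days in a greenhouse at 25–30 °C. An emulsifiable formulation, water-diluted to the set dose, was then sprayed onto the foliage, and effects were scored three weeks later using previously defined criteria.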

[4] = test system: Chinese sprangletop; assay: Test Example 3: herbicidal effect by foliage application, Wagner pot (Table 18, symbol D); format: in vivo, chinese sprangletop (Leptochloa chinensis); conditions: for Herbicidal effect on D (Chinese sprangletop), foliage application: amount of applied herbicide 320 g/ha
Outline: as §2

[5] = test system: barnyard grass; assay: Test Example 4: herbicidal effect by soil treatment (Table 19, symbol H); format: in vivo, barnyard grass (Echinochloa crus-galli); conditions: amount of applied herbicide 320 g/ha
Outline: (§3)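 In this soil treatment, the formulated compound reached the seeds only through the soil: seeds were buried about 1.5 cm deep in sterilized diluvial soil, then the diluted emulsion was sprayed over the surface. After three weeks at 25° C. to 30° C. in a greenhouse, effects were graded on criteria from an earlier test.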

[6] = test system: Italian ryegrass; assay: Test Example 4: herbicidal effect by soil treatment (Table 19, symbol K); format: in vivo, Italian ryegrass (Lolium multiflorum); conditions: amount of applied herbicide 320 g/ha
Outline: as §3

[7] = test system: lambsquarters; assay: Test Example 4: herbicidal effect by soil treatment (Table 19, symbol O); format: in vivo, lambsquarters (Chenopodium album); conditions: amount of applied herbicide 320 g/ha
Outline: as §3

[8] = test system: false cleavers; assay: Test Example 4: herbicidal effect by soil treatment (Table 19, symbol Q); format: in vivo, false cleavers (Galium spurium); conditions: amount of applied herbicide 320 g/ha
Outline: as §3

[9] = test system: persian speedwell; assay: Test Example 4: herbicidal effect by soil treatment (Table 19, symbol R); format: in vivo, Persian speedwell (Veronica persica); conditions: amount of applied herbicide 320 g/ha
Outline: as §3

[10] = test system: southern crabgrass; assay: Test Example 5: herbicidal effect by foliage application, plastic box (Table 20, symbol F); format: in vivo, southern crabgrass (Digitaria ciliaris); conditions: foliage application, 320 g/ha
Outline: (§4)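 Plants were sown into sterilized diluvial soil under about 1.5 cm cover and kept in a greenhouse at 25° C. to 30° C. Fourteen days on, foliage received an even spray of the diluted emulsion. Herbicidal or crop effect was judged three weeks afterwards.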

[11] = test system: green foxtail; assay: Test Example 5: herbicidal effect by foliage application, plastic box (Table 20, symbol G); format: in vivo, green foxtail (Setaria viridis); conditions: foliage application, 320 g/ha
Outline: as §4

[12] = test system: Italian ryegrass; assay: Test Example 5: herbicidal effect by foliage application, plastic box (Table 20, symbol K); format: in vivo, Italian ryegrass (Lolium multiflorum); conditions: foliage application, 320 g/ha
Outline: as §4

[13] = test system: windgrass; assay: Test Example 5: herbicidal effect by foliage application, plastic box (Table 20, symbol L); format: in vivo, windgrass (Apera spica-venti); conditions: foliage application, 320 g/ha
Outline: as §4

[14] = test system: velvetleaf; assay: Test Example 5: herbicidal effect by foliage application, plastic box (Table 20, symbol M); format: in vivo, velvetleaf (Abutilon theophrasti); conditions: foliage application, 320 g/ha
Outline: as §4

[15] = test system: lambsquarters; assay: Test Example 5: herbicidal effect by foliage application, plastic box (Table 20, symbol O); format: in vivo, lambsquarters (Chenopodium album); conditions: foliage application, 320 g/ha
Outline: as §4

[16] = test system: persian speedwell; assay: Test Example 5: herbicidal effect by foliage application, plastic box (Table 20, symbol R); format: in vivo, Persian speedwell (Veronica persica); conditions: foliage application, 320 g/ha
Outline: as §4

[17] = test system: windgrass; assay: Test Example 4: herbicidal effect by soil treatment (Table 19, symbol L); format: in vivo, windgrass (Apera spica-venti); conditions: amount of applied herbicide 320 g/ha
Outline: as §3

[18] = test system: false cleavers; assay: Test Example 5: herbicidal effect by foliage application, plastic box (Table 20, symbol Q); format: in vivo, false cleavers (Galium spurium); conditions: foliage application, 320 g/ha, three weeks after application
Outline: as §4

[19] = evaluated 3 weeks after application

## CCOc1cc(F)ccc1-c1sc2cc(Cl)ccc2c1-c1c(O)c(C)nn(C)c1=O [3-045]
[1]
  Herbicidal effect, A: late watergrass: 2 (Herbicidal rate of 20% or more and less than 40%)
[2]
  Herbicidal effect, C: oval-leafed pondweed: 0 (Herbicidal rate of 5% or less (almost no effect))
[3]; 320 g/ha
  herbicidal effect on barnyard grass (H): 5 (Herbicidal rate of 90% or more (almost completely withered))
[4]; 320 g/ha
  herbicidal effect on Chinese sprangletop (D): 4 (Herbicidal rate of 70% or more and less than 90%)
[5]
  H: barnyard grass, herbicidal effect grade: 5 (Herbicidal rate of 90% or more (almost completely withered))
[6]
  K: Italian ryegrass, herbicidal effect grade: 0 (Herbicidal rate of 5% or less (almost no effect))
[7]
  O: lambsquarters, herbicidal effect grade: 4 (Herbicidal rate of 70% or more and less than 90%)
[8]
  Q: false cleavers, herbicidal effect grade: 4 (Herbicidal rate of 70% or more and less than 90%)
[9]
  R: persian speedwell, herbicidal effect grade: 3 (Herbicidal rate of 40% or more and less than 70%)
[10]; three weeks after application
  F: southern crabgrass, herbicidal effect grade: 5 (Herbicidal rate of 90% or more (almost completely withered))
[11]; three weeks after application
  G: green foxtail, herbicidal effect grade: 5 (Herbicidal rate of 90% or more (almost completely withered))
[12]; three weeks after application
  K: Italian ryegrass, herbicidal effect grade: 0 (Herbicidal rate of 5% or less (almost no effect))
[13]; three weeks after application
  L: windgrass, herbicidal effect grade: 5 (Herbicidal rate of 90% or more (almost completely withered))
[14]; three weeks after application
  M: velvetleaf, herbicidal effect grade: 5 (Herbicidal rate of 90% or more (almost completely withered))
[15]; three weeks after application
  O: lambsquarters, herbicidal effect grade: 3 (Herbicidal rate of 40% or more and less than 70%)
[16]; three weeks after application
  R: persian speedwell, herbicidal effect grade: 5 (Herbicidal rate of 90% or more (almost completely withered))

## COc1ccc(-c2oc3ccc(Cl)cc3c2-c2c(O)c(C)nn(C)c2=O)cc1 [9-002]
[1]
  Herbicidal effect, A: late watergrass: 0 (Herbicidal rate of 5% or less (almost no effect))
[2]
  Herbicidal effect, C: oval-leafed pondweed: 2 (Herbicidal rate of 20% or more and less than 40%)
[3]
  Herbicidal effect on H (barnyard grass), foliage application: 3 (Herbicidal rate of 40% or more and less than 70%)
[4]
  Herbicidal effect on D (Chinese sprangletop), foliage application: 0 (Herbicidal rate of 5% or less (almost no effect))
[5]
  H: barnyard grass, herbicidal effect grade: 2 (Herbicidal rate of 20% or more and less than 40%)
[6]
  K: Italian ryegrass, herbicidal effect grade: 3 (Herbicidal rate of 40% or more and less than 70%)
[17]
  L: windgrass, herbicidal effect grade: 5 (Herbicidal rate of 90% or more (almost completely withered))
[7]
  O: lambsquarters, herbicidal effect grade: 4 (Herbicidal rate of 70% or more and less than 90%)
[8]
  Q: false cleavers, herbicidal effect grade: 0 (Herbicidal rate of 5% or less (almost no effect))
[9]
  R: persian speedwell, herbicidal effect grade: 4 (Herbicidal rate of 70% or more and less than 90%)
[10]; three weeks after application
  herbicidal effect on southern crabgrass (F): 0 (Herbicidal rate of 5% or less (almost no effect))
[11]; three weeks after application
  herbicidal effect on green foxtail (G): 0 (Herbicidal rate of 5% or less (almost no effect))
[12]; three weeks after application
  herbicidal effect on Italian ryegrass (K): 3 (Herbicidal rate of 40% or more and less than 70%)
[13]; three weeks after application
  herbicidal effect on windgrass (L): 1 (Herbicidal rate of 5% or more and less than 20%)
[14]; three weeks after application
  herbicidal effect on velvetleaf (M): 5 (Herbicidal rate of 90% or more (almost completely withered))
[15]; three weeks after application
  herbicidal effect on lambsquarters (O): 4 (Herbicidal rate of 70% or more and less than 90%)
[16]; three weeks after application
  herbicidal effect on persian speedwell (R): 5 (Herbicidal rate of 90% or more (almost completely withered))

## COc1ccc(-c2oc3ccc(C)cc3c2-c2c(O)c(C)nn(C)c2=O)cc1 [9-007]
[1]
  Herbicidal effect, A: late watergrass: 5 (Herbicidal rate of 90% or more (almost completely withered))
[2]
  Herbicidal effect, C: oval-leafed pondweed: 5 (Herbicidal rate of 90% or more (almost completely withered))
[3]
  Herbicidal effect on H (barnyard grass), foliage application: 4 (Herbicidal rate of 70% or more and less than 90%)
[4]
  Herbicidal effect on D (Chinese sprangletop), foliage application: 1 (Herbicidal rate of 5% or more and less than 20%)
[5]
  H: barnyard grass, herbicidal effect grade: 3 (Herbicidal rate of 40% or more and less than 70%)
[6]
  K: Italian ryegrass, herbicidal effect grade: 5 (Herbicidal rate of 90% or more (almost completely withered))
[17]
  L: windgrass, herbicidal effect grade: 0 (Herbicidal rate of 5% or less (almost no effect))
[7]
  O: lambsquarters, herbicidal effect grade: 4 (Herbicidal rate of 70% or more and less than 90%)
[9]
  R: persian speedwell, herbicidal effect grade: 5 (Herbicidal rate of 90% or more (almost completely withered))
[10]; three weeks after application
  herbicidal effect on southern crabgrass (F): 5 (Herbicidal rate of 90% or more (almost completely withered))
[11]; three weeks after application
  herbicidal effect on green foxtail (G): 4 (Herbicidal rate of 70% or more and less than 90%)
[12]; three weeks after application
  herbicidal effect on Italian ryegrass (K): 5 (Herbicidal rate of 90% or more (almost completely withered))
[13]; three weeks after application
  herbicidal effect on windgrass (L): 4 (Herbicidal rate of 70% or more and less than 90%)
[14]; three weeks after application
  herbicidal effect on velvetleaf (M): 5 (Herbicidal rate of 90% or more (almost completely withered))
[15]; three weeks after application
  herbicidal effect on lambsquarters (O): 5 (Herbicidal rate of 90% or more (almost completely withered))
[18]
  herbicidal effect on false cleavers (Q): 1 (Herbicidal rate of 5% or more and less than 20%)
[16]; three weeks after application
  herbicidal effect on persian speedwell (R): 5 (Herbicidal rate of 90% or more (almost completely withered))

## CCCC(=O)Oc1c(C)nn(C)c(=O)c1-c1c(-c2ccc(OC)cc2)oc2ccc(C)cc12 [9-008]
[1]
  Herbicidal effect, A: late watergrass: 5 (Herbicidal rate of 90% or more (almost completely withered))
[2]
  Herbicidal effect, C: oval-leafed pondweed: 5 (Herbicidal rate of 90% or more (almost completely withered))
[3]
  Herbicidal effect on H (barnyard grass), foliage application: 2 (Herbicidal rate of 20% or more and less than 40%)
[4]
  Herbicidal effect on D (Chinese sprangletop), foliage application: 3 (Herbicidal rate of 40% or more and less than 70%)
[5]
  H: barnyard grass, herbicidal effect grade: 3 (Herbicidal rate of 40% or more and less than 70%)
[6]
  K: Italian ryegrass, herbicidal effect grade: 4 (Herbicidal rate of 70% or more and less than 90%)
[17]
  L: windgrass, herbicidal effect grade: 0 (Herbicidal rate of 5% or less (almost no effect))
[7]
  O: lambsquarters, herbicidal effect grade: 4 (Herbicidal rate of 70% or more and less than 90%)
[9]
  R: persian speedwell, herbicidal effect grade: 4 (Herbicidal rate of 70% or more and less than 90%)
[10]; three weeks after application
  herbicidal effect on southern crabgrass (F): 3 (Herbicidal rate of 40% or more and less than 70%)
[11]; three weeks after application
  herbicidal effect on green foxtail (G): 3 (Herbicidal rate of 40% or more and less than 70%)
[12]; three weeks after application
  herbicidal effect on Italian ryegrass (K): 5 (Herbicidal rate of 90% or more (almost completely withered))
[13]; three weeks after application
  herbicidal effect on windgrass (L): 0 (Herbicidal rate of 5% or less (almost no effect))
[14]; three weeks after application
  herbicidal effect on velvetleaf (M): 5 (Herbicidal rate of 90% or more (almost completely withered))
[15]; three weeks after application
  herbicidal effect on lambsquarters (O): 4 (Herbicidal rate of 70% or more and less than 90%)
[18]
  herbicidal effect on false cleavers (Q): 0 (Herbicidal rate of 5% or less (almost no effect))
[16]; three weeks after application
  herbicidal effect on persian speedwell (R): 5 (Herbicidal rate of 90% or more (almost completely withered))

## COCCOc1ccc(-c2oc3ccc(F)cc3c2-c2c(O)c(C)nn(C)c2=O)cc1 [9-045]
[1]
  Herbicidal effect, A: late watergrass: 5 (Herbicidal rate of 90% or more (almost completely withered))
[2]
  Herbicidal effect, C: oval-leafed pondweed: 5 (Herbicidal rate of 90% or more (almost completely withered))
[3]
  Herbicidal effect on H (barnyard grass), foliage application: 5 (Herbicidal rate of 90% or more (almost completely withered))
[4]
  Herbicidal effect on D (Chinese sprangletop), foliage application: 3 (Herbicidal rate of 40% or more and less than 70%)
[5]
  H: barnyard grass, herbicidal effect grade: 5 (Herbicidal rate of 90% or more (almost completely withered))
[6]
  K: Italian ryegrass, herbicidal effect grade: 5 (Herbicidal rate of 90% or more (almost completely withered))
[7]
  O: lambsquarters, herbicidal effect grade: 5 (Herbicidal rate of 90% or more (almost completely withered))
[8]
  Q: false cleavers, herbicidal effect grade: 0 (Herbicidal rate of 5% or less (almost no effect))
[9]
  R: persian speedwell, herbicidal effect grade: 4 (Herbicidal rate of 70% or more and less than 90%)
[10]; [19]
  F (southern crabgrass) herbicidal effect grade: 5 (Herbicidal rate of 90% or more (almost completely withered))
[11]; [19]
  G (green foxtail) herbicidal effect grade: 5 (Herbicidal rate of 90% or more (almost completely withered))
[12]; [19]
  K (Italian ryegrass) herbicidal effect grade: 5 (Herbicidal rate of 90% or more (almost completely withered))
[13]; [19]
  L (windgrass) herbicidal effect grade: 3 (Herbicidal rate of 40% or more and less than 70%)
[14]; [19]
  M (velvetleaf) herbicidal effect grade: 5 (Herbicidal rate of 90% or more (almost completely withered))
[15]; [19]
  O (lambsquarters) herbicidal effect grade: 5 (Herbicidal rate of 90% or more (almost completely withered))
[16]; [19]
  R (persian speedwell) herbicidal effect grade: 5 (Herbicidal rate of 90% or more (almost completely withered))
